Experimental data taken from patent US7737175B2, “Methods and compositions for regulating HDAC4 activity” (Duke University, priority 2007, dated 2010).

Tests used:
HDAC4 [1] = biological target: T1, HDAC4 (Mus musculus, UniProt Q6NZM9); experiment: in vivo siRNA knockdown in mouse tibialis muscle, denervation, RT-PCR of Dach2/MGN/nAChR; design: HDAC4 siRNA results in more than 80% reduction in HDAC4; from tissue; host or cells: mouse tibialis anterior muscle, in vivo; details: siRNA electroporated into tibialis, denervated 3 days
T1 sequence (Q6NZM9 whole entry): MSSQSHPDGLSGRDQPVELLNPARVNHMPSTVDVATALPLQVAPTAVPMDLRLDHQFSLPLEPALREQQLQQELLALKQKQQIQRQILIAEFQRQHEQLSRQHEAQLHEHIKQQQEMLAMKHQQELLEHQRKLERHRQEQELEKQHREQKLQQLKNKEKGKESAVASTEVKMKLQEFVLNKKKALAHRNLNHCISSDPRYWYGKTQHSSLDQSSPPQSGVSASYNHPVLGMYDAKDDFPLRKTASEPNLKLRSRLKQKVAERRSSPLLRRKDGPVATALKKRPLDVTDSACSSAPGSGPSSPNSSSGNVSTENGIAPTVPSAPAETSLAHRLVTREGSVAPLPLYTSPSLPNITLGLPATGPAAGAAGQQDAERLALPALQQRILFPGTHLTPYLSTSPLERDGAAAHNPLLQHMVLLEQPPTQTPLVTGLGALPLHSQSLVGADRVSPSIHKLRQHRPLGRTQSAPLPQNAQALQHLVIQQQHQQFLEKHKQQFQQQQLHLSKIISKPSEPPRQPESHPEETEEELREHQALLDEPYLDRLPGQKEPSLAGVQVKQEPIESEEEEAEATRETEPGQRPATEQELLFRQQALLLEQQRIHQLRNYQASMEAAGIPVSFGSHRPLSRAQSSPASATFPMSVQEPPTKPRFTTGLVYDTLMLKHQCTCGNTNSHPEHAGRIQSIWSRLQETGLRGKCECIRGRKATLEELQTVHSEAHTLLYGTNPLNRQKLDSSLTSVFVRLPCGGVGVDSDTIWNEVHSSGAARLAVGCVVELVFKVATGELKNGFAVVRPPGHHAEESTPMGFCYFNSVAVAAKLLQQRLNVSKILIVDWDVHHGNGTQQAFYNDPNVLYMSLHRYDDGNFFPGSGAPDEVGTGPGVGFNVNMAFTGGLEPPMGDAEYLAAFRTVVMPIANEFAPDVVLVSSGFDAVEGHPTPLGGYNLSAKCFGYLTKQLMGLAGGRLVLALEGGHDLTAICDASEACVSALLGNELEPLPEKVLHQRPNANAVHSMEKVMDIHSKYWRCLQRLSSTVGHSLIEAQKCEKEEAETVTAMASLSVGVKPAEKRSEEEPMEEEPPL
Protocol: (§1) Mouse Procedures. Mice were anaesthetized with a Ketamine/Xylazine mixture (25 mg/ml Ketamine, 1 mg/ml Xylazine in 0.9% NaCl; 100 ul used per mouse. Hair was removed from area surrounding muscle. For denervation, sciatic nerve was exposed and ˜[…] piece of nerve was cut and removed. Incision was sutured and mice were allowed to recover. For overexpression electroporation analysis, 25 ug GFP, HDAC4-GFP, or HDAC4-3SA-GFP was used for injection. For siRNA experiments, 500 pmol siRNA oligo was used for injection. DNA or siRNA were directly injected into TA muscles using cemented MicroSyringe (VWR). ECM 830 electroporator (BTX) was used for all electroporations. Tweezertrodes (Model 520) were coated with transmission gel and were placed outside the skin around the muscle belly and pulsed 5 times at 50V, 60 ms duration, with 200 ms interval time. Mice were allowed to recover in their cages. Stealth siRNA duplexed oligos are from Invitrogen. Sequences are; mouse HDAC4: 5′ […] 3′ (SEQ ID NO:3), mouse HDAC5: 5′ […] 3′ (SEQ ID NO:4).
RNA analysis. For RNA analysis, TA muscles were dounce homogenized in 1 ml Tri reagent (MRC) and incubated at 4° C. overnight. 200 ul chloroform was added, and after vigorous shaking, samples were centrifuged at 12000 rpm for 10 min. Top aqueous layer was added to 500 ul isopropanol, mixed well, and centrifuged at 12000 rpm for 10 min. RNA pellet was washed with 70% ethanol, air-dried, and resuspended in DEPC water for RT-PCR analysis. For northern blotting, 10 ug total RNA was run on a 1% formaldehyde RNA gel. Gel was transferred onto Hybond N+ membrane and probed using radiolabeled fragments of HDAC4 or Atrogin-1 cDNA generated from Prime-it kit II (Stratagene). Blots were exposed for 2 hr at −80° C. For RT-PCR analysis, total RNA was DNase treated using DNA-free kit (Ambion), and 1 ug RNA was used for cDNA synthesis reaction using iScript cDNA Synthesis Kit (Biorad). Samples were diluted 1:50 and 5 ul cDNA was used per RT-PCR reaction. Real-time quantitative PCR was performed using iQ SYBER Green Supermix on the iCycler™ iQ Detection System (Biorad). […]

HDAC4 [2] = biological target: T1, HDAC4; experiment: muscle atrophy after surgical denervation of siRNA-electroporated tibialis anterior (fiber size, atrophy genes by RT-PCR); assay type: in vivo; design: HDAC4 siRNA results in more than 80% reduction in HDAC4; from tissue; host or cells: mouse tibialis anterior muscle, in vivo
Protocol: as §1
RNA analysis. For RNA analysis, TA muscles were dounce homogenized in 1 ml Tri reagent (MRC) and incubated at 4° C. overnight. 200 ul chloroform was added, and after vigorous shaking, samples were centrifuged at 12000 rpm for 10 min. Top aqueous layer was added to 500 ul isopropanol, mixed well, and centrifuged at 12000 rpm for 10 min. RNA pellet was washed with 70% ethanol, air-dried, and resuspended in DEPC water for RT-PCR analysis. For northern blotting, 10 ug total RNA was run on a 1% formaldehyde RNA gel. Gel was transferred onto Hybond N+ membrane and probed using radiolabeled fragments of HDAC4 or Atrogin-1 cDNA generated from Prime-it kit II (Stratagene). Blots were exposed for 2 hr at −80° C. For RT-PCR analysis, total RNA was DNase treated using DNA-free kit (Ambion), and 1 ug RNA was used for cDNA synthesis reaction using iScript cDNA Synthesis Kit (Biorad). Samples were diluted 1:50 and 5 ul cDNA was used per RT-PCR reaction. Real-time quantitative PCR was performed using iQ SYBER Green Supermix on the iCycler™ iQ Detection System (Biorad). Sample volume was 20 ul per reaction. Efficiency and specificity of primers were confirmed by standard PCR and DNA electrophoresis. RT-PCR Program on iCycler™ was 95° C. 15 sec, 60° C. 30 sec, 72° C. 30 sec. All real-time PCR values were normalized to either actin or 18S rRNA. RT-PCR primer sequences are as follows: G-actin: forward 5′-[…] 3′ (SEQ ID NO:5), reverse 5′ […] 3′ (SEQ ID NO:6); 18S: forward 5′ […] 3′ (SEQ ID NO:7), reverse 5′ […] 3′ (SEQ ID NO:8); Dach2: forward 5′-[…] 3′ (SEQ ID NO:9), reverse 5′ […] 3′ (SEQ ID NO:10); nAChRα: forward 5′ CGTCTGGTGGCAAAGCT 3′ (SEQ ID NO:11), reverse 5′-CCGCTCTCCATGAAGTT 3′ (SEQ ID NO:12); MGN: forward 5′-[…] […]
To establish a role for HDAC4 in muscle atrophy, scrambled control siRNA or HDAC4-specific siRNA were electroporated into tibialis anterior (TA) followed by denervation. […] The extent of muscle atrophy was then analyzed by measuring muscle fiber size and the induction of atrophy-specific genes, MuRF1 and atrogin 1, two E3 ligases essential for muscle atrophy. […]

HDAC4 [3] = biological target: T1, HDAC4; experiment: PGC-1α and myoglobin expression in tibialis anterior electroporated with HDAC4-siRNA; assay type: in vivo; design: HDAC4 siRNA results in more than 80% reduction in HDAC4; from tissue; host or cells: mouse tibialis anterior muscle, in vivo; details: fast/glycolytic tibialis anterior muscle
Protocol: as §1
RNA analysis. For RNA analysis, TA muscles were dounce homogenized in 1 ml Tri reagent (MRC) and incubated at 4° C. overnight. 200 ul chloroform was added, and after vigorous shaking, samples were centrifuged at 12000 rpm for 10 min. […] Real-time quantitative PCR was performed using iQ SYBER Green Supermix on the iCycler™ iQ Detection System (Biorad). […]

HDAC4 [4] = biological target: T1, HDAC4; details: daily injection

Row | Substance | induction of MGN after denervation (HDAC4 [1]) | induction of nAChR after denervation (HDAC4 [1]) | repression of Dach2 that occurs during denervation (HDAC4 [1]; 7 days after electroporation) | atrogin 1 expression after denervation (HDAC4 [2]; RT-PCR) | induction of MuRF1 by denervation (HDAC4 [2]; RT-PCR) | atrophy (reduction in TA muscle size) after denervation (HDAC4 [2]; denervation for 12 days, versus control siRNA) | reduction in HDAC4 (HDAC4 [2]; siRNA electroporated into tibialis anterior) | size of individual fibers of denervated muscles (HDAC4 [2]; versus fibers that received control siRNA) | PGC-1α expression (HDAC4 [3]) | myoglobin expression (HDAC4 [3]) | level of PGC-1α (HDAC4 [4])
1 | 5′ CACCGGAACCUGAACCACUGCAUUU 3′ (SEQ ID NO:3) [HDAC4 siRNA] | dramatically reduced | dramatically reduced | significantly alleviates | modestly affected | significantly inhibited | largely prevented | more than 80% | much larger | elevation | elevation | 
2 | Trichostatin A |  |  |  |  |  |  |  |  |  |  | increase
